Results taken from ChEMBL document CHEMBL4680223, “Development of bivalent triarylalkene- and cyclofenil-derived dual estrogen receptor antagonists and downregulators” (Eur J Med Chem, 2020).
Values after ≈ are worked out from the molar mass of the structure shown. Active and inactive are the calls of the source. The calls are words filed in the database; no cut-off is given here.

How the values were obtained:
Estrogen receptor beta [1] = target: T1, Estrogen receptor beta (Homo sapiens, UniProt Q92731); assay: Agonist activity at recombinant human GST-tagged ERbeta assessed as increase in fluorescein-labelled coactivator PGC1 peptide recruitment at 1 uM by LanthaScreen TR-FRET assay
Estrogen receptor beta [2] = target: T1, Estrogen receptor beta; assay: Agonist activity at ERbeta (unknown origin) expressed in human U2OS cells at 0.1 to 1 uM measured after 21 hrs by dual luciferase reporter gene assay; type: cell-based; details: dose 0.1-1 µM
Estrogen receptor beta [3] = target: T1, Estrogen receptor beta
Estrogen receptor beta [4] = target: T1, Estrogen receptor beta; remark: listed apart in the source
physchem = details: water
Description: Aqueous solubility of compound in water

[5] = Drug uptake in human MCF7 cells assessed per mg protein at 10 uM incubated for 24 hrs by fluorescence assay; type: ADME, cell-based; details: mcf7, 24 h
Estrogen receptor [6] = target: T2, Estrogen receptor (Homo sapiens, UniProt P03372); assay: Agonist activity at ERalpha (unknown origin) expressed in human U2OS cells at 0.1 to 1 uM measured after 21 hrs by dual luciferase reporter gene assay; type: cell-based; details: dose 0.1-1 µM
T2 sequence (P03372 whole entry): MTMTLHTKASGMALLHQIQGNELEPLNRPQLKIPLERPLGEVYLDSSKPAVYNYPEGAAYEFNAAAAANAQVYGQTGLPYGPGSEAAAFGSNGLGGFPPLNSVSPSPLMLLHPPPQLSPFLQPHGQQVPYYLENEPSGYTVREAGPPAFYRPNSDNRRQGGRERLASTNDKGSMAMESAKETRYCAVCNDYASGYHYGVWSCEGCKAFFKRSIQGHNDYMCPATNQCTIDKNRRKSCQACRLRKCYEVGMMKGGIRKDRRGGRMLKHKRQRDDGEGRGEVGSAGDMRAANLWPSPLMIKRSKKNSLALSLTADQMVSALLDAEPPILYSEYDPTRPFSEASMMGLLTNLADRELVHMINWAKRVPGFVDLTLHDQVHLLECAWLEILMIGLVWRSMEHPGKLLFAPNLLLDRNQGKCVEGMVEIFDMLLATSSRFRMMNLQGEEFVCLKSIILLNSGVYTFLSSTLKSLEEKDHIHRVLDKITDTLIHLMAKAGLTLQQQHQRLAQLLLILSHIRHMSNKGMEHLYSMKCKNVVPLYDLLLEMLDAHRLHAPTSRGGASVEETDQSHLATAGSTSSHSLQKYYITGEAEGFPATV

[7] = Drug uptake in African green monkey COS7 cells assessed per mg protein at 10 uM incubated for 24 hrs by fluorescence assay; type: ADME; details: chlorocebus aethiops, cos-7, 24 h
COS-7 [8] = assay: Cytotoxicity against African green monkey COS7 cells assessed as reduction in cell metabolic activity up to 20 uM measured after 72 hrs by modified MTT based EZ4U assay; type: ADME; details: chlorocebus aethiops, cos-7, 72 h
MCF7 [9] = assay: Antiproliferative activity against human MCF7 cells assessed as cell mass at 10 uM measured after 72 hrs by crystal violet staining based assay relative to control; type: functional
MCF7 [10] = assay: Antiproliferative activity against human MCF7 cells assessed as cell mass at 50 nM measured after 72 hrs by crystal violet staining based assay relative to control; type: functional
MCF7 [11] = assay: cells; details: Homo sapiens, MCF7, 72 h
Description: Antiproliferative activity against human MCF7 cells assessed as reduction in cell mass measured after 72 hrs by crystal violet staining based assay

COS-7 [12] = assay: cells; details: Chlorocebus aethiops, COS-7, 72 h
Description: Cytotoxicity against African green monkey COS7 cells assessed as reduction in cell mass measured after 72 hrs by crystal violet staining based assay

Estrogen receptor beta [13] = target: T1, Estrogen receptor beta; assay: Antagonist activity at recombinant human GST-tagged ERbeta assessed as inhibition of E2-induced increase in fluorescein-labelled coactivator PGC1 peptide recruitment at 100 nM measured after 30 mins by LanthaScreen TR-FRET assay relative to control; details: filed as antagonist
Estrogen receptor beta [14] = target: T1, Estrogen receptor beta; assay: Antagonist activity at recombinant human GST-tagged ERbeta assessed as inhibition of E2-induced increase in fluorescein-labelled coactivator PGC1 peptide recruitment at 1 uM measured after 10 to 30 mins by LanthaScreen TR-FRET assay relative to control; details: filed as antagonist, time 10-30 min
[15] = target: T3, Estrogen receptor (Homo sapiens) (UniProt P03372); assay: Selective estrogen receptor alpha degrader activity in human MCF7 cells assessed as down regulation of ERalpha expression at 1 uM measured after 4 hrs in presence of protease inhibitor MG-132 by Western blot analysis; type: cell-based
T3 sequence (whole entry): T2 sequence (P03372 whole entry)

Estrogen receptor [16] = target: T2, Estrogen receptor
Estrogen receptor [17] = target: T2, Estrogen receptor; remark: listed apart in the source
MCF7 [18] = assay: Antiproliferative activity against human MCF7 cells assessed as reduction in cell metabolic activity at 10 uM measured after 72 hrs by modified MTT based EZ4U assay relative to control; type: functional; parameters: scale not given: the % may be the effect or the level left
COS-7 [19] = assay: Cytotoxicity against African green monkey COS7 cells assessed as reduction in cell metabolic activity up to 10 uM measured after 72 hrs by modified MTT based EZ4U assay; type: ADME; details: chlorocebus aethiops, cos-7, 72 h
MDA-MB-231 [20] = assay: Antiproliferative activity against human MDA-MB-231 cells assessed as reduction in cell mass at 10 uM measured after 72 hrs by crystal violet staining based assay relative to control; type: functional; parameters: scale not given: the % may be the effect or the level left
SK-BR-3 [21] = assay: Antiproliferative activity against human SK-BR-3 cells assessed as reduction in cell mass at 10 uM measured after 72 hrs by crystal violet staining based assay relative to control; type: functional; parameters: scale not given: the % may be the effect or the level left
MDA-MB-231 [22] = assay: Antiproliferative activity against human MDA-MB-231 cells assessed as cell mass at 20 uM measured after 72 hrs by crystal violet staining based assay relative to control; type: functional
SK-BR-3 [23] = assay: Antiproliferative activity against human SK-BR-3 cells assessed as cell mass at 20 uM measured after 72 hrs by crystal violet staining based assay relative to control; type: functional
Estrogen receptor beta [24] = target: T1, Estrogen receptor beta; assay: Antagonist activity at recombinant human GST-tagged ERbeta assessed as inhibition of E2-induced increase in fluorescein-labelled coactivator PGC1 peptide recruitment at 1 uM measured after 10 mins by LanthaScreen TR-FRET assay; details: filed as antagonist
Estrogen receptor beta [25] = target: T1, Estrogen receptor beta; assay: Antagonist activity at recombinant human GST-tagged ERbeta assessed as inhibition of E2-induced increase in fluorescein-labelled coactivator PGC1 peptide recruitment at 5 uM measured after 30 mins by LanthaScreen TR-FRET assay relative to control; details: filed as antagonist
MCF7 [26] = assay: Antiproliferative activity against human MCF7 cells assessed as reduction in cell metabolic activity up to 10 uM measured after 72 hrs by modified MTT based EZ4U assay; type: functional; details: dose microM <=10, time 72.0 hrs

T1 sequence (Q92731 whole entry): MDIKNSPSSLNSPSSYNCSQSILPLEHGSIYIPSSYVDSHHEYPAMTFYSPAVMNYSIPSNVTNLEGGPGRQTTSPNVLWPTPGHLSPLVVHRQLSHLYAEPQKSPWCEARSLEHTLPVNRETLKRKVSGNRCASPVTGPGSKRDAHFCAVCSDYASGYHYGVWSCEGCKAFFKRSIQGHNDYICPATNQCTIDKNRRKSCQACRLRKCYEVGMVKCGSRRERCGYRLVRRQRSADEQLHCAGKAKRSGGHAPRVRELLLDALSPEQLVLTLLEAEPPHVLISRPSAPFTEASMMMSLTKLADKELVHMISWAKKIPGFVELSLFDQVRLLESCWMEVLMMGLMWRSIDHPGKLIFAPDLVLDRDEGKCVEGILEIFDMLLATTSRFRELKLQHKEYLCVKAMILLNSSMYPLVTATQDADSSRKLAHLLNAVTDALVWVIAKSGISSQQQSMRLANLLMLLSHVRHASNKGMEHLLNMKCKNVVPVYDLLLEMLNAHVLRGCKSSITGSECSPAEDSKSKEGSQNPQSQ

Structure (SMILES) | Activity (Estrogen receptor beta [1]) | Activity (Estrogen receptor beta [2]) | IC50 (Estrogen receptor beta [3]) [nM] | IC50 (Estrogen receptor beta [4]) [nM] | solubility (physchem) [µM] | Activity (Estrogen receptor [6]) | Activity (COS-7 [8]) | inhibition (Estrogen receptor beta [13]) [%] | IC50 (Estrogen receptor [16]) [nM] | IC50 (Estrogen receptor [17]) [nM] | Activity (COS-7 [19]) | other results
CC/C(=C(/c1ccc(O)cc1)c1ccc(/C=C/C(=O)NCCCCCNC(=O)/C=C/c2ccc(/C(=C(\CC)c3ccccc3)c3ccc(O)cc3)cc2)cc1)c1ccccc1 | Not Active | Not Active | 15.5 | 256 | 34 (≈ 27.4 µg/mL) | – | – | – | – | – | – | –
O=C(/C=C/c1ccc(C(=C2CCCCC2)c2ccc(O)cc2)cc1)NCCNC(=O)/C=C/c1ccc(C(=C2CCCCC2)c2ccc(O)cc2)cc1 | Not Active | Not Active | 27.5 | 216 | 6.5 (≈ 4.5 µg/mL) | – | – | – | – | – | – | –
CC/C(=C(/c1ccc(O)cc1)c1ccc(/C=C/C(=O)NCCN)cc1)c1ccccc1.O=C(O)C(F)(F)F.O=C(O)C(F)(F)F.O=C(O)C(F)(F)F | – | – | – | – | – | Not Active | Non-Toxic | – | – | – | – | Drug uptake [5]: 35.3 nmol; Drug uptake [7]: 33.7 nmol
C[C@]12CC[C@@H]3c4ccc(O)cc4C[C@@H](CCCCCCCCC[S+]([O-])CCCC(F)(F)C(F)(F)F)[C@H]3[C@@H]1CC[C@@H]2O (some centres undefined) [FULVESTRANT] | – | – | – | – | – | – | Non-Toxic | – | – | – | – | T/C (MCF7 [9]): 75.5%; T/C (MCF7 [10]): 64%; IC50 (MCF7 [11]): 4.93 µM; IC50 (COS-7 [12]): 34 µM
CC/C(=C(/c1ccc(O)cc1)c1ccc(/C=C/C(=O)NCCCNC(=O)/C=C/c2ccc(/C(=C(\CC)c3ccccc3)c3ccc(O)cc3)cc2)cc1)c1ccccc1 | Not Active | Not Active | 22.2 | 153 | 24 (≈ 18.7 µg/mL) | Not Active | – | 50 | 1.28 | 136 | – | inhibition (Estrogen receptor beta [14]): 100%; Activity [15]: Active
O=C(/C=C/c1ccc(C(=C2CCCCC2)c2ccc(O)cc2)cc1)NCCCCCNC(=O)/C=C/c1ccc(C(=C2CCCCC2)c2ccc(O)cc2)cc1 | – | – | – | – | 10 (≈ 7.35 µg/mL) | – | – | – | – | – | Non-Toxic | Activity (MCF7 [18]): 50%
CC/C(=C(/c1ccc(O)cc1)c1ccc(/C=C/C(=O)NCCNC(=O)/C=C/c2ccc(/C(=C(\CC)c3ccccc3)c3ccc(O)cc3)cc2)cc1)c1ccccc1 | Not Active | Not Active | 67.7 | 78.7 | > 40 | Not Active | Non-Toxic | – | 15.1 | 260 | – | –
CC/C(=C(/c1ccc(O)cc1)c1ccc(OCCN(C)C)cc1)c1ccccc1 | – | – | – | – | – | – | Non-Toxic | – | – | – | – | Activity (MDA-MB-231 [20]): 79%; Activity (SK-BR-3 [21]): 58%; T/C (MDA-MB-231 [22]): -80%; T/C (SK-BR-3 [23]): -81%; IC50 (MCF7 [11]): 4.94 µM; IC50 (COS-7 [12]): 8.69 µM
O=C(/C=C/c1ccc(C(=C2CCCCC2)c2ccc(O)cc2)cc1)NCCCNC(=O)/C=C/c1ccc(C(=C2CCCCC2)c2ccc(O)cc2)cc1 | Not Active | Not Active | 34 | 304 | 15.4 (≈ 10.9 µg/mL) | Not Active | – | 50 | 1.67 | 565 | Non-Toxic | Activity (MCF7 [18]): 53%
CC/C(=C(\c1ccc(O)cc1)c1ccc(/C=C/C(=O)O)cc1)c1ccccc1 | – | – | – | – | – | – | – | – | – | – | Non-Toxic | inhibition (Estrogen receptor beta [24]): Active; inhibition (Estrogen receptor beta [25]): 50%; Activity [15]: inactive; T/C (MCF7 [9]): 33%; Activity (MCF7 [26]): inactive
CC/C(=C(/c1ccc(O)cc1)c1ccc(/C=C/C(=O)NCCCCNC(=O)/C=C/c2ccc(/C(=C(\CC)c3ccccc3)c3ccc(O)cc3)cc2)cc1)c1ccccc1 | Not Active | Not Active | 44 | 215 | 19 (≈ 15.1 µg/mL) | Not Active | Non-Toxic | 50 | 18.9 | 290 | – | Drug uptake [5]: 4.67 nmol; inhibition (Estrogen receptor beta [14]): 100%; Drug uptake [7]: 3.92 nmol
O=C(/C=C/c1ccc(C(=C2CCCCC2)c2ccc(O)cc2)cc1)NCCCCNC(=O)/C=C/c1ccc(C(=C2CCCCC2)c2ccc(O)cc2)cc1 | Not Active | Not Active | 15.7 | 54.8 | 10 (≈ 7.21 µg/mL) | – | – | 50 | – | – | Non-Toxic | Drug uptake [5]: 5.22 nmol; Drug uptake [7]: 11.7 nmol; Activity (MCF7 [18]): 69%
